Results reported in patent US12071408B2, “Multi-targeted tyrosine kinase inhibitors effective in antitumor uses” (Shanghai AB PharmaTech Ltd., priority 2021, dated 2024).

Tests used:
[1] = tested on: hepatocellular carcinoma cell line (Hep3B 2.1-7); assay: Tumor cell proliferation inhibition (CTG, 72 h); type: cell-based; settings: Homo sapiens; Hep3B 2.1-7 cells, class; read-out: Hep3B 2.1-7 range of activity (IC50)
[2] = tested on: bladder cancer cell line (RT112/84); assay: Tumor cell proliferation inhibition (CTG, 72 h); type: cell-based; settings: Homo sapiens; RT112/84 cells, class; read-out: RT112/84 range of activity (IC50)
[3] = tested on: thyroid cancer cell line (TT); assay: Tumor cell proliferation inhibition (CTG, 72 h); type: cell-based; settings: Homo sapiens; TT cells, class; read-out: TT range of activity (IC50)
[4] = tested on: cervical cancer cell line (Hela); assay: Tumor cell proliferation inhibition (CTG, 72 h); type: cell-based; settings: Homo sapiens; Hela cells, class; read-out: Hela activity effect range (IC50)
[5] = tested on: leukemia cell line (K562); assay: Tumor cell proliferation inhibition (CTG, 72 h); type: cell-based; settings: Homo sapiens; K562 cells, class; read-out: K562 activity effect range (IC50)
VEGFR-2 (KDR) = VEGFR-2 (KDR) (Homo sapiens (Human), UniProt P35968); assay: Kinase inhibition, Mobility-Shift Assay; type: biochemical; settings: class; read-out: KDR activity effect range (IC50)
VEGFR-2 (KDR), sequence (P35968 20-1356): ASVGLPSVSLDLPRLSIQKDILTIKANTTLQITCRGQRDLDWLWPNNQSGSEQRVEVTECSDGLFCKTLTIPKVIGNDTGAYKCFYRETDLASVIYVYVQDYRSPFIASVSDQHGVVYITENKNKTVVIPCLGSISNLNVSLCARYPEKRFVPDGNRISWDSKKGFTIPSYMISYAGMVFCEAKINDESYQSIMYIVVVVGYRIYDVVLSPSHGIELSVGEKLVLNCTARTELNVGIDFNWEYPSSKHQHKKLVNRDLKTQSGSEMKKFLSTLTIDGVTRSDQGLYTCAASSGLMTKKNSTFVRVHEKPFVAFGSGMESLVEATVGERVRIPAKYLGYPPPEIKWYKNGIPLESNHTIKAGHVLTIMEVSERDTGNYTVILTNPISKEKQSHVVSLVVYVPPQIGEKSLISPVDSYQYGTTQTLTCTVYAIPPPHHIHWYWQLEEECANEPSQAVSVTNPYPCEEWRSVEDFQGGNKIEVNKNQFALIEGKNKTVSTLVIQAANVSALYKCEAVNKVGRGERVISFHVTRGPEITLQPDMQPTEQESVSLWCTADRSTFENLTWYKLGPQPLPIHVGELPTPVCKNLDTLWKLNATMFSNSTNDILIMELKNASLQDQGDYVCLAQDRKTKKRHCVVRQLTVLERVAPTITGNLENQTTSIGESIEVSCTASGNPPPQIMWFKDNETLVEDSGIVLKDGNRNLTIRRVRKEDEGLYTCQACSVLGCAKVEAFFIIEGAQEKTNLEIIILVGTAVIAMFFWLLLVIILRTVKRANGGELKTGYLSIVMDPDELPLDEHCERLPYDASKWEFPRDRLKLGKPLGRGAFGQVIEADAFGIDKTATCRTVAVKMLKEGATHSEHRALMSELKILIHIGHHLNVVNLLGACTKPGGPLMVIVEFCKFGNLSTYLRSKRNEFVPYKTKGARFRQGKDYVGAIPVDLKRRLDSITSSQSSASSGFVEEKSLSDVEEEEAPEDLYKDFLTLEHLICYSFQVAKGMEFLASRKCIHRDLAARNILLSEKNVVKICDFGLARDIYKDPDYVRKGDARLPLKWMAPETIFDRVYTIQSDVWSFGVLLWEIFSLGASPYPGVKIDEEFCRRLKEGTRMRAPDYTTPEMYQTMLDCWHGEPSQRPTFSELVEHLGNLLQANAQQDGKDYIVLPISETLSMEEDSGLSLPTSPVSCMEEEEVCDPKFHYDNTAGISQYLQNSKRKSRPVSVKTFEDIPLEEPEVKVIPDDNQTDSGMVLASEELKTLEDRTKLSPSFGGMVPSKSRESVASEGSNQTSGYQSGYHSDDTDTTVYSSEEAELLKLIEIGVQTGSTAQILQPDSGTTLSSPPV

FGFR2 = FGFR2 (Homo sapiens (Human), UniProt P21802); assay: Kinase inhibition, Mobility-Shift Assay; type: biochemical; settings: class; read-out: FGFR2 range of activity effects (IC50)
FGFR2, sequence (P21802 22-821): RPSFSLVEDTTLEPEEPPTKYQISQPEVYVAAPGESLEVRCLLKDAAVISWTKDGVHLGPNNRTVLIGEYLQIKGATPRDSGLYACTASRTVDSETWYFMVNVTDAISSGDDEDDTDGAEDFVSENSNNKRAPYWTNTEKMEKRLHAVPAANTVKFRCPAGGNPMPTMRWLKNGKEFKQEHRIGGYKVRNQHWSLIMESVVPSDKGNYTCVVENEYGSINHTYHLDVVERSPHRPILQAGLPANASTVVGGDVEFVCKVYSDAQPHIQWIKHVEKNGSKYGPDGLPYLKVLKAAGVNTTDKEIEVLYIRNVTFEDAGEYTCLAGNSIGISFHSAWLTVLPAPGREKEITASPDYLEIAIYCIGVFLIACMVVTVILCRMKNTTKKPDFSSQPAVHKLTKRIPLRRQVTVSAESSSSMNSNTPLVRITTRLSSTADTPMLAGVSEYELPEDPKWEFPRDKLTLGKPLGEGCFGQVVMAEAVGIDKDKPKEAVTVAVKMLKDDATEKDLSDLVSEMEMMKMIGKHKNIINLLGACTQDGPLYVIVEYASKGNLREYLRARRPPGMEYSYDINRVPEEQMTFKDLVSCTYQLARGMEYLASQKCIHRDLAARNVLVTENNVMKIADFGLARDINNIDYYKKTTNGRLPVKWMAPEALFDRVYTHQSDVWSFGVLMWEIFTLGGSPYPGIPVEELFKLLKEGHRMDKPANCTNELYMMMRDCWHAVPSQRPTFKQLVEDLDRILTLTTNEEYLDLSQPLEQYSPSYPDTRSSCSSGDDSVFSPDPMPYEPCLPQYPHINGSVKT

FGFR4 = FGFR4 (Homo sapiens (Human), UniProt P22455); assay: Kinase inhibition, Mobility-Shift Assay; type: biochemical; settings: class; read-out: FGFR4 range of activity effects (IC50)
FGFR4, sequence (P22455 22-802): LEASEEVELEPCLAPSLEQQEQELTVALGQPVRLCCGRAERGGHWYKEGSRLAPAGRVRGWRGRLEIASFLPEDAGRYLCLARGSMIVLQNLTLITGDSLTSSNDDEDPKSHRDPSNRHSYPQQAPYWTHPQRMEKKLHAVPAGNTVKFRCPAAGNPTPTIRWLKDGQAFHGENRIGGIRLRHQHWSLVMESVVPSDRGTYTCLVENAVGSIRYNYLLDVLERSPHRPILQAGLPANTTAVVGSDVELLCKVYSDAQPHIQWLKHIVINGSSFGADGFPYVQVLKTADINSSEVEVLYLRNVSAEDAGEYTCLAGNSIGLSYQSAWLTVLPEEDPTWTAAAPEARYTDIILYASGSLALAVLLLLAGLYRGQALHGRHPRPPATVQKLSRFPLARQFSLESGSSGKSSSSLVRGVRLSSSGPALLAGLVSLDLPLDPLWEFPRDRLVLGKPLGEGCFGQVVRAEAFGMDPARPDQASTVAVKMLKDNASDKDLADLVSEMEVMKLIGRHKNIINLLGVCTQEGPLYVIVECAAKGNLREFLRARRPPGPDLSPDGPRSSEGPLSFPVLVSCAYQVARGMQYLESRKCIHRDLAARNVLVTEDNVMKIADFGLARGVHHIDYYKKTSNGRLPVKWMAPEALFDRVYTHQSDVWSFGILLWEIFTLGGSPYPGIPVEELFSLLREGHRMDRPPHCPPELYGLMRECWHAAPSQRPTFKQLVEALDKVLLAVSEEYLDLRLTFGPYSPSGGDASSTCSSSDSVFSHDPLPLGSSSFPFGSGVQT

EGFR = EGFR (Homo sapiens (Human), UniProt P00533); assay: Kinase inhibition, Mobility-Shift Assay; type: biochemical; settings: class; read-out: EGFR range of activity (IC50)
EGFR, sequence (P00533 25-1210): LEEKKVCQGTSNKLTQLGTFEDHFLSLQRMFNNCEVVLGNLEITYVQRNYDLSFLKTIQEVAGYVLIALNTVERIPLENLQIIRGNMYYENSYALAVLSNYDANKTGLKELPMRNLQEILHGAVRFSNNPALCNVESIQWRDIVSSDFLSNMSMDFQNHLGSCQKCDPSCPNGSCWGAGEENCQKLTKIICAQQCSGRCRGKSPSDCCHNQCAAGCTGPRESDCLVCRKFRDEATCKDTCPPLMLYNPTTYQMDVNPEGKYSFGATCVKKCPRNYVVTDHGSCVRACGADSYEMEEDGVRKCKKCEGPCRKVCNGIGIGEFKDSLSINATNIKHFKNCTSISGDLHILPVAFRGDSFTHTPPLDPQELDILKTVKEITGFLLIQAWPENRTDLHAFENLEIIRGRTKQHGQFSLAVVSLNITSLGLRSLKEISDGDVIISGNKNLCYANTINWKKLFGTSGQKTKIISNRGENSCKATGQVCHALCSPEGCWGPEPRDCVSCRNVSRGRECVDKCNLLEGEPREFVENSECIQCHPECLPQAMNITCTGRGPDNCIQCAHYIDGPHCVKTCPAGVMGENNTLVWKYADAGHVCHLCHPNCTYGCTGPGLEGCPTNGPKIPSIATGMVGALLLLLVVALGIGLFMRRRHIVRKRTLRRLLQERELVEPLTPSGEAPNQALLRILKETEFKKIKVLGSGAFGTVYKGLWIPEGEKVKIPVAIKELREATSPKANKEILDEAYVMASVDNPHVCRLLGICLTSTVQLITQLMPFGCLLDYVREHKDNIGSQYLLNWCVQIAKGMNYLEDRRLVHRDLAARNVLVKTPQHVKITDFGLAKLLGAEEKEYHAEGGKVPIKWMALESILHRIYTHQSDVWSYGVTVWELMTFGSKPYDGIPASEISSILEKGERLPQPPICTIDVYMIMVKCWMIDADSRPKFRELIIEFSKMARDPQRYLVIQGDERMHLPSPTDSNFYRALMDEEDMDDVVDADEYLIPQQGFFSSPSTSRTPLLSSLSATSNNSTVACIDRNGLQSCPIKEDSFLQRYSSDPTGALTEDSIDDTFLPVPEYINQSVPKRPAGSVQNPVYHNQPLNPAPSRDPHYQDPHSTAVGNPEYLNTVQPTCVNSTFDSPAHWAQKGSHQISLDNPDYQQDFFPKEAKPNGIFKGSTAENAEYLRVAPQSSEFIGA

C-MET = C-MET (Homo sapiens (Human), UniProt P08581); assay: Kinase inhibition, Mobility-Shift Assay; type: biochemical; settings: class; read-out: C-MET range of activity (IC50)

| IC50 [1] [nM] | IC50 [2] [nM] | IC50 [3] [nM] | IC50 [4] [nM] | IC50 [5] [nM] | IC50 (VEGFR-2 (KDR)) [nM] | IC50 (FGFR2) [nM] | IC50 (FGFR4) [nM] | IC50 (EGFR) [nM] | IC50 (C-MET) [nM] | SMILES |
| --- | --- | --- | --- | --- | --- | --- | --- | --- | --- | --- |
| > 5000 | > 1000 | > 10000 | > 10000 | > 10000 | > 10 | > 100 | > 100 | > 100 | > 100 | COc1cc2nccc(Oc3c(F)cc(NC(=O)N(C)C(C)C)c(Cl)c3F)c2cc1C(N)=O [III-02] |
| > 5000 | > 1000 | > 10000 | > 10000 | > 10000 | > 10 | > 100 | > 100 | > 100 | > 100 | CCC(C)NC(=O)Nc1cc(F)c(Oc2ccnc3cc(OC)c(C(N)=O)cc23)c(F)c1Cl (centres unmarked) [III-03] |
| > 5000 | > 1000 | > 10000 | > 10000 | > 10000 | > 10 | > 100 | > 100 | > 100 | > 100 | COc1cc2nccc(Oc3c(F)cc(NC(=O)NC(C)(C)C)c(Cl)c3F)c2cc1C(N)=O [III-04] |
| > 5000 | > 1000 | > 10000 | > 10000 | > 10000 | > 10 | > 100 | > 100 | > 100 | > 100 | COc1cc2nccc(Oc3c(F)cc(NC(=O)NCC(F)F)c(Cl)c3F)c2cc1C(N)=O [III-05] |
| > 5000 | > 1000 | > 10000 | > 10000 | > 10000 | > 10 | > 100 | > 100 | > 100 | > 100 | COc1cc2nccc(Oc3c(F)cc(NC(=O)NCCO)c(Cl)c3F)c2cc1C(N)=O [III-06] |
| > 5000 | > 1000 | > 10000 | > 10000 | > 10000 | > 10 | > 100 | > 100 | > 100 | > 100 | COc1cc2nccc(Oc3c(F)cc(NC(=O)N[C@@H](C)CO)c(Cl)c3F)c2cc1C(N)=O [III-07] |
| > 5000 | > 1000 | > 10000 | > 10000 | > 10000 | > 10 | > 100 | > 100 | > 100 | > 100 | COc1cc2nccc(Oc3c(F)cc(NC(=O)N[C@H](C)CO)c(Cl)c3F)c2cc1C(N)=O [III-08] |
| > 5000 | > 1000 | > 10000 | > 10000 | > 10000 | > 10 | > 100 | > 100 | > 100 | > 100 | COc1cc2nccc(Oc3c(F)cc(NC(=O)NC[C@H](C)O)c(Cl)c3F)c2cc1C(N)=O [III-09] |
| > 5000 | > 1000 | > 10000 | > 10000 | > 10000 | > 10 | > 100 | > 100 | > 100 | > 100 | COc1cc2nccc(Oc3c(F)cc(NC(=O)NC[C@@H](C)O)c(Cl)c3F)c2cc1C(N)=O [III-10] |
| > 5000 | > 1000 | > 10000 | > 10000 | > 10000 | > 10 | > 100 | > 100 | > 100 | > 100 | COc1cc2nccc(Oc3c(F)cc(NC(=O)NC(C)(C)CO)c(Cl)c3F)c2cc1C(N)=O [III-11] |
| > 5000 | > 1000 | > 10000 | > 10000 | > 10000 | > 10 | > 100 | > 100 | > 100 | > 100 | COc1cc2nccc(Oc3c(F)cc(NC(=O)NCC(C)(C)O)c(Cl)c3F)c2cc1C(N)=O [III-12] |
| > 5000 | > 1000 | > 10000 | > 10000 | > 10000 | > 10 | > 100 | > 100 | > 100 | > 100 | COc1cc2nccc(Oc3c(F)cc(NC(=O)NC(CO)CO)c(Cl)c3F)c2cc1C(N)=O [III-13] |
| > 5000 | > 1000 | > 10000 | > 10000 | > 10000 | > 10 | > 100 | > 100 | > 100 | > 100 | COc1cc2nccc(Oc3c(F)cc(NC(=O)NC[C@H](O)CO)c(Cl)c3F)c2cc1C(N)=O [III-14] |
| > 5000 | > 1000 | > 10000 | > 10000 | > 10000 | > 10 | > 100 | > 100 | > 100 | > 100 | COc1cc2nccc(Oc3c(F)cc(NC(=O)NC[C@@H](O)CO)c(Cl)c3F)c2cc1C(N)=O [III-15] |
| 2500 to 5000 | 200 to 1000 | > 10000 | > 10000 | 5000 to 10000 | 2 to 10 | 30 to 100 | > 100 | > 100 | 60 to 100 | COc1cc2nccc(Oc3c(F)cc(NC(=O)NC4CC4)c(F)c3F)c2cc1C(N)=O [III-16] |
| > 5000 | > 1000 | > 10000 | > 10000 | > 10000 | > 10 | > 100 | > 100 | > 100 | > 100 | COc1cc2nccc(Oc3c(F)cc(NC(=O)NC4CC4)c(Br)c3F)c2cc1C(N)=O [III-17] |
| > 5000 | > 1000 | > 10000 | > 10000 | > 10000 | > 10 | > 100 | > 100 | > 100 | > 100 | COc1cc2nccc(Oc3c(Br)cc(NC(=O)NC4CC4)c(Cl)c3F)c2cc1C(N)=O [III-18] |
| > 5000 | > 1000 | > 10000 | > 10000 | > 10000 | > 10 | > 100 | > 100 | > 100 | > 100 | COc1cc2nccc(Oc3c(Cl)cc(NC(=O)NC4CC4)c(Cl)c3F)c2cc1C(N)=O [III-19] |
| > 5000 | > 1000 | > 10000 | > 10000 | > 10000 | > 10 | > 100 | > 100 | > 100 | > 100 | COc1cc2nccc(Oc3c(Cl)cc(NC(=O)NC4CC4)c(Br)c3F)c2cc1C(N)=O [III-20] |
| > 5000 | > 1000 | > 10000 | > 10000 | > 10000 | > 10 | > 100 | > 100 | > 100 | > 100 | COc1cc2nccc(Oc3c(F)cc(NC(=O)NC4(C)CC4)c(F)c3F)c2cc1C(N)=O [III-21] |
| > 5000 | > 1000 | > 10000 | > 10000 | > 10000 | > 10 | > 100 | > 100 | > 100 | > 100 | COc1cc2nccc(Oc3c(F)cc(NC(=O)NC4(C)CC4)c(Cl)c3F)c2cc1C(N)=O [III-22] |
| > 5000 | > 1000 | > 10000 | > 10000 | > 10000 | > 10 | > 100 | > 100 | > 100 | > 100 | COc1cc2nccc(Oc3c(F)cc(NC(=O)NC4CC4(F)F)c(F)c3F)c2cc1C(N)=O (centres unmarked) [III-23] |
| > 5000 | > 1000 | > 10000 | > 10000 | > 10000 | > 10 | > 100 | > 100 | > 100 | > 100 | COc1cc2nccc(Oc3c(F)cc(NC(=O)NC4CC4(F)F)c(Cl)c3F)c2cc1C(N)=O (centres unmarked) [III-24] |
| > 5000 | > 1000 | > 10000 | > 10000 | > 10000 | > 10 | > 100 | > 100 | > 100 | > 100 | COc1cc2nccc(Oc3c(F)cc(NC(=O)NCC4CC4)c(Cl)c3F)c2cc1C(N)=O [III-25] |
| > 5000 | > 1000 | > 10000 | > 10000 | > 10000 | > 10 | > 100 | > 100 | > 100 | > 100 | COc1cc2nccc(Oc3c(F)cc(NC(=O)NC4CCC4)c(Cl)c3F)c2cc1C(N)=O [III-26] |
| > 5000 | > 1000 | > 10000 | > 10000 | > 10000 | > 10 | > 100 | > 100 | > 100 | > 100 | COc1cc2nccc(Oc3c(F)cc(NC(=O)NC4COC4)c(Cl)c3F)c2cc1C(N)=O [III-27] |
